From patent US20220409620A1, “REDUCING IMMUNOGENICITY TO PEGLOTICASE” (Horizon Pharma Rheumatology LLC, priority 2016, published 2022)

Tested on: adult patients with uncontrolled gout
Experiment: Serum uric acid (sUA) levels and sUA responder rate, open-label study of pegloticase with MTX (MIRROR OL)
Format: in vivo, human
Conditions: mITT Population
Description: The primary objective is to estimate the response rate during Month 6 (Weeks 20, 22, and 24), as measured by the sustained normalization of serum uric acid (SUA) to <6 mg/dL for at least 80% of the time during Month 6 in subjects receiving KXX with MTX.
The primary efficacy outcome endpoint is the sustained normalization of SUA to <6 mg/dL for at least 80% of the time during month 6 (weeks 20, 22, and 24) in subjects receiving KXX with MTX. […] Participants who achieve this endpoint were classified as “responders.” Serum uric acid (SUA) responders may also be defined as participants achieving and maintaining SUA <6 mg/dL for at least 80% of the time during Month 6 (Weeks 20, 22, and 24).
Blood samples may be collected prior to each pegloticase infusion for measurement of SUA levels using the Beckman Coulter AU System Uric Acid procedure. Participants were declared “non-responders” if there were SUA measures >6 mg/dL at 2 consecutive study visits beginning with the week 2 visit. […] This assumption and subsequent discontinuation of pegloticase was consistent with the protocol of large phase III randomized controlled trials and the product label. A formal stopping rule was 2 occasions of SUA levels of greater than 6 mg/dL.
Clinical Chemistry—Blood samples were collected prior to each pegloticase infusion for measurement of SUA levels (primary efficacy parameter) using the Beckman Coulter AU System Uric Acid procedure. In this procedure uric acid is converted to hydrogen peroxide. Hydrogen peroxide reacts with reagent to produce a chromophore which is read bichromatically at 660/800 nm. The amount of dye formed is proportional to the uric acid concentration in the sample.
Serum samples for measurement of SUA levels were collected at the Screening Visit, the Week −4 Visit (prior to the first dose of MTX), and the Week −2 Visit during the MTX Run-in Period; within 48 hours prior to each pegloticase infusion and after the end of each pegloticase infusion prior to discharge from the site during the Pegloticase+IMM Period; at the non-infusion Week 52/End of Study/Early Termination Visits and at the Post Treatment 3 and 6 Month Follow-up Visits. Additional serum samples for SUA levels were collected at optional non-infusion (Frequent Sampling) Visits at Weeks 1 and 7. […] Subjects with SUA level >6 mg/dL at 2 consecutive visits beginning at Week 2 visit discontinued treatment, completed the End of Pegloticase Infusion Visit procedures within 2 weeks and continued the subject visits according to the protocol (without treatment).
Efficacy analyses were performed using the modified intention-to-treat (mITT) population, defined as all enrolled subjects who received ≥1 dose of pegloticase. The proportion of Month 6 responders was summarized, along with a 95% confidence interval for the proportion. The proportion of Month 3 and overall (Months 3 and 6 combined) responders was analyzed similarly.
A subject was declared a non-responder if the subject had SUA level >6 mg/dL at 2 consecutive study visits beginning with the Week 2 Visit. In addition, a subject who withdraws from study treatment for any reason after the first dose of pegloticase in the KXX+MTX Period and prior to Month 6 (for the primary endpoint) or Month 3 (for the secondary endpoint) was considered a non-responder if SUA values were not collected at the planned time points.
Patients were administered oral MTX (15 mg/week) and folate (1 mg/day) 4 weeks prior to the first pegloticase infusion (Day 1) and throughout the pegloticase treatment period. Blood was drawn prior to each infusion to measure sUA level, monitor clinical parameters, and examine for ADA development. All patients followed typical IR prophylaxis protocols (fexofenadine one day before and the morning of each infusion and acetaminophen and IV corticosteroid the morning of each infusion).

With pegloticase as the substance, how does the “Serum Uric Acid, Observed, Mean (SD)” value (Week 7) read?
Its value is 0.30 (0.000) mg/dL.

What about the “Serum Uric Acid, Observed, Median” value (Week 7) of the same substance?
Its value is 0.30 mg/dL.

And the “sUA <6 mg/dL, n (%)” value (Week 7)?
Its value is 4 (100%).

What about the “Serum Uric Acid, Change from Baseline, Mean (SD)” value (“Serum Uric Acid, Change … (SD)” below) (Week 8 - Post-Infusion) of the same substance?
The value was −8.98 (2.679) mg/dL.

What about the “Serum Uric Acid, Change from Baseline, Median” value (Week 8 - Post-Infusion) of the same substance?
Its value is -8.95 mg/dL.

What about the “Serum Uric Acid, Observed, Mean (SD)” value (Week 8 - Post-Infusion) of the same substance?
Its value is 0.30 (0.000) mg/dL.

What about the “Serum Uric Acid, Observed, Median” value (Week 8 - Post-Infusion) of the same substance?
Its value is 0.30 mg/dL.

And the “sUA <6 mg/dL, n (%)” value (Week 8 - Post-Infusion)?
The value was 12 (100%).

What about the “Serum Uric Acid, Change … (SD)” value (Week 8 - Pre-Infusion) of the same substance?
Its value is −8.20 (3.624) mg/dL.

And the “Serum Uric Acid, Change from Baseline, Median” value (Week 8 - Pre-Infusion)?
Its value is -8.33 mg/dL.

What about the “Serum Uric Acid, Observed, Mean (SD)” value (Week 8 - Pre-Infusion) of the same substance?
Its value is 1.08 (2.472) mg/dL.

And the “Serum Uric Acid, Observed, Median” value (Week 8 - Pre-Infusion)?
Its value is 0.30 mg/dL.

And the “sUA <6 mg/dL, n (%)” value (Week 8 - Pre-Infusion)?
Its value is 11 (91.7%).

And the “Serum Uric Acid, Change … (SD)” value (Week 10 - Post-Infusion)?
Its value is −8.97 (2.810) mg/dL.

And the “Serum Uric Acid, Change from Baseline, Median” value (Week 10 - Post-Infusion)?
Its value is -8.80 mg/dL.

And the “Serum Uric Acid, Observed, Mean (SD)” value (Week 10 - Post-Infusion)?
Its value is 0.30 (0.000) mg/dL.

And the “Serum Uric Acid, Observed, Median” value (Week 10 - Post-Infusion)?
The value was 0.30 mg/dL.

And the “sUA <6 mg/dL, n (%)” value (Week 10 - Post-Infusion)?
The value was 11 (100%).

What about the “Serum Uric Acid, Change … (SD)” value (Week 10 - Pre-Infusion) of the same substance?
Its value is −8.33 (3.476) mg/dL.

And the “Serum Uric Acid, Change from Baseline, Median” value (Week 10 - Pre-Infusion)?
The value was -8.70 mg/dL.

What about the “Serum Uric Acid, Observed, Mean (SD)” value (Week 10 - Pre-Infusion) of the same substance?
The value was 0.95 (2.252) mg/dL.

What about the “Serum Uric Acid, Observed, Median” value (Week 10 - Pre-Infusion) of the same substance?
The value was 0.30 mg/dL.

What about the “sUA <6 mg/dL, n (%)” value (Week 10 - Pre-Infusion) of the same substance?
The value was 11 (91.7%).

And the “Serum Uric Acid, Change … (SD)” value (Week 12 - Post-Infusion)?
Its value is −9.13 (2.911) mg/dL.

What about the “Serum Uric Acid, Change from Baseline, Median” value (Week 12 - Post-Infusion) of the same substance?
The value was -9.05 mg/dL.

What about the “Serum Uric Acid, Observed, Mean (SD)” value (Week 12 - Post-Infusion) of the same substance?
Its value is 0.30 (0.000) mg/dL.

What about the “Serum Uric Acid, Observed, Median” value (Week 12 - Post-Infusion) of the same substance?
Its value is 0.30 mg/dL.

What about the “sUA <6 mg/dL, n (%)” value (Week 12 - Post-Infusion) of the same substance?
The value was 10 (100%).

And the “Serum Uric Acid, Change … (SD)” value (Week 12 - Pre-Infusion)?
Its value is −8.98 (2.806) mg/dL.

And the “Serum Uric Acid, Change from Baseline, Median” value (Week 12 - Pre-Infusion)?
Its value is -8.80 mg/dL.

What about the “Serum Uric Acid, Observed, Mean (SD)” value (Week 12 - Pre-Infusion) of the same substance?
Its value is 0.30 (0.015) mg/dL.

What about the “Serum Uric Acid, Observed, Median” value (Week 12 - Pre-Infusion) of the same substance?
Its value is 0.30 mg/dL.

What about the “sUA <6 mg/dL, n (%)” value (Week 12 - Pre-Infusion) of the same substance?
The value was 11 (100%).

What about the “Serum Uric Acid, Change … (SD)” value (Week 14 - Post-Infusion) of the same substance?
Its value is −9.01 (2.959) mg/dL.

And the “Serum Uric Acid, Change from Baseline, Median” value (Week 14 - Post-Infusion)?
Its value is -9.05 mg/dL.

What about the “Serum Uric Acid, Observed, Mean (SD)” value (Week 14 - Post-Infusion) of the same substance?
The value was 0.30 (0.000) mg/dL.

What about the “Serum Uric Acid, Observed, Median” value (Week 14 - Post-Infusion) of the same substance?
The value was 0.30 mg/dL.

What about the “sUA <6 mg/dL, n (%)” value (Week 14 - Post-Infusion) of the same substance?
The value was 10 (100%).

What about the “Serum Uric Acid, Change … (SD)” value (Week 14 - Pre-Infusion) of the same substance?
The value was −8.97 (2.810) mg/dL.

And the “Serum Uric Acid, Change from Baseline, Median” value (Week 14 - Pre-Infusion)?
The value was -8.80 mg/dL.

What about the “Serum Uric Acid, Observed, Mean (SD)” value (Week 14 - Pre-Infusion) of the same substance?
Its value is 0.30 (0.000) mg/dL.

And the “Serum Uric Acid, Observed, Median” value (Week 14 - Pre-Infusion)?
Its value is 0.30 mg/dL.

What about the “sUA <6 mg/dL, n (%)” value (Week 14 - Pre-Infusion) of the same substance?
Its value is 11 (100%).

And the “Serum Uric Acid, Change … (SD)” value (Week 16 - Post-Infusion)?
The value was −8.97 (2.810) mg/dL.

And the “Serum Uric Acid, Change from Baseline, Median” value (Week 16 - Post-Infusion)?
Its value is -8.80 mg/dL.

What about the “Serum Uric Acid, Observed, Mean (SD)” value (Week 16 - Post-Infusion) of the same substance?
Its value is 0.30 (0.000) mg/dL.

What about the “Serum Uric Acid, Observed, Median” value (Week 16 - Post-Infusion) of the same substance?
Its value is 0.30 mg/dL.

And the “sUA <6 mg/dL, n (%)” value (Week 16 - Post-Infusion)?
Its value is 11 (100%).

What about the “Serum Uric Acid, Change … (SD)” value (Week 16 - Pre-Infusion) of the same substance?
The value was −8.97 (2.810) mg/dL.

What about the “Serum Uric Acid, Change from Baseline, Median” value (Week 16 - Pre-Infusion) of the same substance?
The value was -8.80 mg/dL.

What about the “Serum Uric Acid, Observed, Mean (SD)” value (Week 16 - Pre-Infusion) of the same substance?
Its value is 0.30 (0.000) mg/dL.

And the “Serum Uric Acid, Observed, Median” value (Week 16 - Pre-Infusion)?
Its value is 0.30 mg/dL.

And the “sUA <6 mg/dL, n (%)” value (Week 16 - Pre-Infusion)?
The value was 11 (100%).

What about the “Serum Uric Acid, Change … (SD)” value (Week 18 - Post-Infusion) of the same substance?
Its value is −8.97 (2.810) mg/dL.

What about the “Serum Uric Acid, Change from Baseline, Median” value (Week 18 - Post-Infusion) of the same substance?
The value was -8.80 mg/dL.

What about the “Serum Uric Acid, Observed, Mean (SD)” value (Week 18 - Post-Infusion) of the same substance?
The value was 0.30 (0.000) mg/dL.

What about the “Serum Uric Acid, Observed, Median” value (Week 18 - Post-Infusion) of the same substance?
The value was 0.30 mg/dL.

What about the “sUA <6 mg/dL, n (%)” value (Week 18 - Post-Infusion) of the same substance?
Its value is 11 (100%).

And the “Serum Uric Acid, Change … (SD)” value (Week 18 - Pre-Infusion)?
Its value is −8.97 (2.810) mg/dL.

And the “Serum Uric Acid, Change from Baseline, Median” value (Week 18 - Pre-Infusion)?
The value was -8.80 mg/dL.

What about the “Serum Uric Acid, Observed, Mean (SD)” value (Week 18 - Pre-Infusion) of the same substance?
Its value is 0.30 (0.000) mg/dL.

And the “Serum Uric Acid, Observed, Median” value (Week 18 - Pre-Infusion)?
The value was 0.30 mg/dL.

What about the “sUA <6 mg/dL, n (%)” value (Week 18 - Pre-Infusion) of the same substance?
The value was 11 (100%).
